Patent publication US20250230193A1, “CYCLIC COMPOUND HAVING SELECTIVE KRAS INHIBITORY EFFECT ON HRAS AND NRAS” (CHUGAI SEIYAKU KABUSHIKI KAISHA, priority 2022, published 2025)

Assays:
[1] = target: GDP-bound NRAS wild-type protein (Homo sapiens, UniProt P01111); experiment: Binding to NRAS by surface plasmon resonance (SPR), Single Cycle Kinetics; conditions: KD ratio NRAS/KRAS, class symbols
[2] = target: GDP-bound HRAS wild-type protein (Homo sapiens, UniProt P01112); experiment: Binding to HRAS by surface plasmon resonance (SPR), Single Cycle Kinetics; conditions: KD ratio HRAS/KRAS, class symbols
Sequence of GDP-bound HRAS wild-type protein (P01112 whole entry): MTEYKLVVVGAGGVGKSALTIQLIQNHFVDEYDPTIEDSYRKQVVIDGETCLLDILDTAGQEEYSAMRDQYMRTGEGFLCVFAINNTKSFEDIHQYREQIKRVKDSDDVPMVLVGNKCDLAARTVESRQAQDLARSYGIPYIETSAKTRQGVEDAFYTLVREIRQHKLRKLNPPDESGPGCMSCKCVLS

Sequence of GDP-bound NRAS wild-type protein (P01111 whole entry): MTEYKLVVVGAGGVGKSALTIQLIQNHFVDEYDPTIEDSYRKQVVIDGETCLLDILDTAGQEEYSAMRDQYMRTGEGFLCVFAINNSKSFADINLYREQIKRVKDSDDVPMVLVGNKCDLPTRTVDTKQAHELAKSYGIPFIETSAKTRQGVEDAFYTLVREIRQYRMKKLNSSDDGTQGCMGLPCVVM

| SMILES | NRAS/KRAS (ratio of KD value with respect to GDP-bound NRAS wild-type protein to KD value with respect to KRAS) [1] | HRAS/KRAS (ratio of KD value with respect to GDP-bound HRAS wild-type protein to KD value with respect to KRAS) [2] |
| --- | --- | --- |
| CCC[C@H]1C(=O)N[C@@H]([C@@H](C)CC)C(=O)N(C)CC(=O)N(C)[C@H]2C/C=C\CCN(C2=O)[C@@H](Cc2ccc(C)cc2)C(=O)N(C)CC(=O)N[C@@H](CCc2ccc3sc(F)c(C)c3c2)C(=O)N2C[C@H](OCC)C[C@H]2C(=O)NC2(CC(C)(C)C2)C(=O)N(C)[C@@H](C2CCCC2)C(=O)N(C)[C@H](C(=O)N(C)C)CC(=O)N1C [PP2949] | A (a compound having 10 or more and less than 20 is denoted as A) | A (a compound having 10 or more and less than 20 is denoted as A) |
| CCC[C@H]1C(=O)N[C@@H]([C@@H](C)CC)C(=O)N(C)CC(=O)N(C)[C@H]2C/C=C\CCN(C2=O)[C@@H](Cc2ccc(C(F)(F)F)cc2)C(=O)N(C)CC(=O)N[C@@H](CCc2cc(Cl)c3c(ccn3C)c2)C(=O)N2C[C@H](OCC)C[C@H]2C(=O)NC2(CC(C)(C)C2)C(=O)N(C)[C@@H](C2CCCC2)C(=O)N(C)[C@H](C(=O)N(C)C)CC(=O)N1C [PP2950] | A (a compound having 10 or more and less than 20 is denoted as A) | A (a compound having 10 or more and less than 20 is denoted as A) |
| CCC[C@H]1C(=O)N[C@@H]([C@@H](C)CC)C(=O)N(C)CC(=O)N(C)[C@H]2C/C=C\CCN(C2=O)[C@@H](Cc2ccc(C)cc2)C(=O)N(C)CC(=O)N[C@@H](CCc2cc(Cl)c3c(ccn3C)c2)C(=O)N2C[C@H](OCC)C[C@H]2C(=O)NC2(CC(C)(C)C2)C(=O)N(C)[C@@H](C2CCCC2)C(=O)N(C)[C@H](C(=O)N(C)C)CC(=O)N1C [PP2951] | A (a compound having 10 or more and less than 20 is denoted as A) | A (a compound having 10 or more and less than 20 is denoted as A) |
| CCO[C@@H]1C[C@H]2C(=O)NC3(CC(C)(C)C3)C(=O)N(C)[C@@H](C(CC)CC)C(=O)N(C)[C@H](C(=O)N3CCCCC3)CC(=O)N(C)[C@H]3CCC/C=C/c4ccc(cc4)C[C@@H](C(=O)N(C)CC(=O)N[C@@H](CCc4cc(F)c(C(F)(F)F)c(F)c4)C(=O)N2C1)N1CC/C=C\C[C@@H](C1=O)N(C)C(=O)CN(C)C(=O)[C@H]([C@@H](C)CC)NC3=O [PP2952] | AA (a compound having 20 or more is denoted as AA) | A (a compound having 10 or more and less than 20 is denoted as A) |
| CCO[C@@H]1C[C@H]2C(=O)NC3(CC(C)(C)C3)C(=O)N(C)[C@@H](C(CC)CC)C(=O)N(C)[C@H](C(=O)N3CCCCC3)CC(=O)N(C)[C@H]3CCC/C=C/c4ccc(cc4)C[C@@H](C(=O)N(C)CC(=O)N[C@@H](CCc4ccc(Cl)c(Cl)c4)C(=O)N2C1)N1CC/C=C\C[C@@H](C1=O)N(C)C(=O)CN(C)C(=O)[C@H]([C@@H](C)CC)NC3=O [PP2953] | AA (a compound having 20 or more is denoted as AA) | A (a compound having 10 or more and less than 20 is denoted as A) |
| CCO[C@@H]1C[C@H]2C(=O)NC3(CCC3)C(=O)N(C)[C@@H](C3CCCC3)C(=O)N(C)[C@H](C(=O)N3CCCCC3)CC(=O)N(C)[C@H]3CCC/C=C/c4ccc(cc4)C[C@@H](C(=O)N(C)CC(=O)N[C@@H](CCc4cc(F)c(C(F)(F)F)c(F)c4)C(=O)N2C1)N1CC/C=C\C[C@@H](C1=O)N(C)C(=O)CN(C1CC1)C(=O)[C@H]([C@@H](C)CC)NC3=O [PP2954] | A (a compound having 10 or more and less than 20 is denoted as A) | A (a compound having 10 or more and less than 20 is denoted as A) |
| CCO[C@@H]1C[C@H]2C(=O)NC3(CC(C)(C)C3)C(=O)N(C)[C@@H](C(CC)CC)C(=O)N(C)[C@H](C(=O)N(C)C)CC(=O)N(C)[C@H]3CCC/C=C/c4ccc(cc4)C[C@@H](C(=O)N(C)CC(=O)N[C@@H](CCc4cc(F)c(C(F)(F)F)c(F)c4)C(=O)N2C1)N1CC/C=C\C[C@@H](C1=O)N(C)C(=O)CN(C1CC1)C(=O)[C@H]([C@@H](C)CC)NC3=O [PP2955] | A (a compound having 10 or more and less than 20 is denoted as A) | A (a compound having 10 or more and less than 20 is denoted as A) |
| CCO[C@@H]1C[C@H]2C(=O)NC3(CCC3)C(=O)N(C)[C@@H](C(CC)CC)C(=O)N(C)[C@H](C(=O)N3CCCCC3)CC(=O)N(C)[C@H]3CCC/C=C/c4ccc(cc4)C[C@@H](C(=O)N(C)CC(=O)N[C@@H](CCc4cc(F)c(C(F)(F)F)c(F)c4)C(=O)N2C1)N1CC/C=C\C[C@@H](C1=O)N(C)C(=O)CN(C1CC1)C(=O)[C@H]([C@@H](C)CC)NC3=O [PP2956] | AA (a compound having 20 or more is denoted as AA) | A (a compound having 10 or more and less than 20 is denoted as A) |
| CCO[C@@H]1C[C@H]2C(=O)NC3(CCC3)C(=O)N(C)[C@@H](C(CC)CC)C(=O)N(C)[C@H](C(=O)N3CCCC3)CC(=O)N(C)[C@H]3CCC/C=C/c4ccc(cc4)C[C@@H](C(=O)N(C)CC(=O)N[C@@H](CCc4cc(F)c(C(F)(F)F)c(F)c4)C(=O)N2C1)N1CC/C=C\C[C@@H](C1=O)N(C)C(=O)CN(C1CC1)C(=O)[C@H]([C@@H](C)CC)NC3=O [PP2957] | AA (a compound having 20 or more is denoted as AA) | A (a compound having 10 or more and less than 20 is denoted as A) |
| CCO[C@@H]1C[C@H]2C(=O)NC3(CCC3)C(=O)N(C)[C@@H](C3CCCC3)C(=O)N(C)[C@H](C(=O)N3CCCCC3)CC(=O)N(C)[C@H]3CCC/C=C/c4ccc(cc4)C[C@@H](C(=O)N(C)CC(=O)N[C@@H](CCc4ccc(Cl)c(Cl)c4)C(=O)N2C1)N1CC/C=C\C[C@@H](C1=O)N(C)C(=O)CN(C1CC1)C(=O)[C@H]([C@@H](C)CC)NC3=O [PP2958] | AA (a compound having 20 or more is denoted as AA) | A (a compound having 10 or more and less than 20 is denoted as A) |
| CCC(CC)[C@H]1C(=O)N(C)[C@H](C(=O)N(C)C)CC(=O)N(C)[C@@H](COC)C(=O)N[C@@H]([C@@H](C)CC)C(=O)N(C)CC(=O)N(C)[C@H]2C/C=C\CCN(C2=O)[C@@H](Cc2ccc(C)cc2)C(=O)N(C)CC(=O)N[C@@H](CCc2cc(F)c(C(F)(F)F)c(F)c2)C(=O)N2CCCCC[C@H]2C(=O)NC2(CC(C)(C)C2)C(=O)N1C [PP2960] | A (a compound having 10 or more and less than 20 is denoted as A) | A (a compound having 10 or more and less than 20 is denoted as A) |
| CCC(CC)[C@H]1C(=O)N(C)[C@H](C(=O)N(C)C)CC(=O)N(C)[C@@H](COC)C(=O)N[C@@H]([C@@H](C)CC)C(=O)N(C)CC(=O)N(C)[C@H]2C/C=C\CCN(C2=O)[C@@H](Cc2ccc(C(F)(F)F)cc2)C(=O)N(C)CC(=O)N[C@@H](CCc2cc(F)c(C(F)(F)F)c(F)c2)C(=O)N2CC3(CC3)C[C@H]2C(=O)NC2(CC(C)(C)C2)C(=O)N1C [PP2961] | AA (a compound having 20 or more is denoted as AA) | A (a compound having 10 or more and less than 20 is denoted as A) |
| CCC[C@H]1C(=O)N[C@@H]([C@@H](C)CC)C(=O)N(C)CC(=O)N(C)[C@H]2C/C=C\CCN(C2=O)[C@@H](Cc2ccc(C)cc2)C(=O)N(C)CC(=O)N[C@@H](CCc2ccc(Cl)c(Cl)c2)C(=O)N2CCCCC[C@H]2C(=O)NC2(CC(C)(C)C2)C(=O)N(C)[C@@H](C(CC)CC)C(=O)N(C)[C@H](C(=O)N(C)C)CC(=O)N1C [PP2962] | AA (a compound having 20 or more is denoted as AA) | A (a compound having 10 or more and less than 20 is denoted as A) |
| CCC(CC)[C@H]1C(=O)N(C)[C@H](C(=O)N(C)C)CC(=O)N(C)[C@@H](COC)C(=O)N[C@@H]([C@@H](C)CC)C(=O)N(C)CC(=O)N(C)[C@H]2C/C=C\CCN(C2=O)[C@@H](Cc2ccc(C)cc2)C(=O)N(C)CC(=O)N[C@@H](CCc2cc(F)c(C(F)(F)F)c(F)c2)C(=O)N2CC3(CC3)C[C@H]2C(=O)NC2(CC(C)(C)C2)C(=O)N1C [PP2963] | AA (a compound having 20 or more is denoted as AA) | A (a compound having 10 or more and less than 20 is denoted as A) |
| CCC[C@H]1C(=O)N[C@@H]([C@@H](C)CC)C(=O)N(C)CC(=O)N(C)[C@H]2C/C=C\CCN(C2=O)[C@@H](Cc2ccc(C(F)(F)F)cc2)C(=O)N(C)CC(=O)N[C@@H](CCc2ccc(C(F)(F)F)c(Cl)c2)C(=O)N2CCCCC[C@H]2C(=O)NC2(CC(C)(C)C2)C(=O)N(C)[C@@H](C(CC)CC)C(=O)N(C)[C@H](C(=O)N(C)C)CC(=O)N1C [PP2964] | AA (a compound having 20 or more is denoted as AA) | A (a compound having 10 or more and less than 20 is denoted as A) |
